Measurements from patent US20080286388A1, “Pharmaceutical Composition and Non Dependence Coffee Comprising Edible Carboxylic Acid and/or Its Acid Salts and Coffeine” (priority 2004, published 2008).
In brackets after ≈: the same amount, converted by molar mass. Where two headings read alike, the source gives them in different places.

Assays:
[1] = tested on: mouse's leaching cell solution (abdominal cavity cells), histamine release by 48/80 compound; test: Drug inhibiting effect on histamine leaching from mouse abdominal cavity cells treated with 48/80 compound; type: cell-based; settings: for inhibition at 100 µg/mL / IC50 / inhibition at 2 µg/mL / inhibition at 5 µg/mL / inhibition at 10 µg/mL / inhibition at 50 µg/mL / inhibition at 300 µg/mL / inhibition at 1000 µg/mL: Mus musculus; for IC50: read-out: IC50 value (concentration for inhibiting rate of 50%)
Protocol: This is a comparative testing for drug depressing effect on the amount of leaching histamines when is treated with 48/80 (Sigma, St. MO, USA) compound.
(1). Preparation of Leaching Cell Solution from Mouse Body.
A mouse is killed and bloodletting. Then 10 ml of Locke's solution containing 0.1% bovine serum protein is injected into its abdominal cavity. After abdominal cavity being light massaged, the cavity is cut and the Locke's solution is removed. Cavity is washed with another 5 ml of Locke's solution, and this washed solution is added to the latter one. This combined solution is centrifuged at 600 rpm for 5 minutes. The sediments are washed with 5 ml of cool Locke's solution. Adding 3 ml of cold Locke's solution to the washed sediments, then a leached cell solution of abdominal cavity is obtained. (The composition of Locke's solution is: NaCL […], KCL 0.2%, CaCL2 0.15%, glucose 1.0%, in w/v, and the rest distillated water.)
(2). Drug Inhibiting Effect on the Amount of Leaching Histamines when Treated with 48/80 Compound.
1.0 ml of each of those solutions in last term is mixed with 0.3 ml of mouse's leaching cell solution and 0.5 ml of Locke's solution. This mixture is cultivated at 37° C. for 5 minutes. Then adding 0.2 ml of Locke's solution of 48/80 compound (1 mg/100 ml) and cultivated at 37° C. for 10 minutes. Then the reaction is stopped by cooling, and centrifuged at 2,500 rpm for 10 minutes. 1.7 ml of decanted solution and 0.3 ml of sediments are obtained.
0.1 ml of water and 0.2 ml of 100% trichloroacetic acid are added to the decanted solution. 1.5 ml of Locke's solution and 0.2 ml of 100% trichloroacetic acid are added to the sediments washed solution. They are cultivated at room temperature for 30 minutes. After cultivation, the mixtures are centrifuged at 3,000 rpm for 15 minutes, respectively. 0.35 ml of each of the former two solutions is sampled. In each sample, 1.65 ml of water, 0.4 ml of 1N NaOH and 0.1 ml of 0.5% OPT (o-phthalic aldehyde) in methanol are added and cultivated at room temperature for 4 minutes. The reaction is stopped by adding 0.2 ml of 2M citric acid. And finally, determine the amount of released histamines in the tested solution by fluorescence method. By the analysis, results of the inhibiting rate of histamines could be calculated.
Locke's solution is instead of each drug in control group, and instead of both drug and 48/80 compound solution in blank group.
The histamine releasing rate (A) can be calculated by following equation. […] Where (Hs) is the total amount of histamine in the decanted solution, and (Hr) is the total amount of histamine in the sediment. (A)=[(Hs)/{(Hs)+(Hr)}]×100%. Then the inhibiting rate is:
=100−[(A−A in blank group)/(A−A in control group)]×100%.

person = test: Tests for increase the ability of learning and memory; type: in vivo, human; settings: three pieces of 600 mg, average of four tests before and after ingesting; for change in vivo at 1800 mg: Homo sapiens, po, read-out: Increase rate (%) of memory ability
Protocol: A person administrates see a random series of 100 numbers, typed by PC, for 10 minutes and memory it. Then recite and write down the memorized number series. To check the recited series with the original one to see how many numbers are correct. In each testing at least has 10 minutes interval, and repeat four times. […] Each kind of drugs testing is done in half day, morning or afternoon only. The testing results were counted by one correct number for one point. Make the average value of four times testing of before and after drug ingesting, respectively. The increase of learning or memory ability is calculated by following equation and listed in Table 14: Rate of increase of memory ability=[(average value of four time testing before ingesting drug)−(average value of four times testing after ingesting drug)]×100%/(average value of four time testing before ingesting drug)

[2] = testing drug 100 μg/ml, adding 5% of coffee extract
[3] = testing drug 100 μg/ml, non adding coffee extract
[4] = adding 5% of coffee extract, calculated by figure
[5] = dose 2 μg/ml, adding 5% of coffee extract
[6] = dose 5 μg/ml, adding 5% of coffee extract
[7] = dose 10 μg/ml, adding 5% of coffee extract
[8] = dose 50 μg/ml, adding 5% of coffee extract
[9] = dose 100 μg/ml, adding 5% of coffee extract
[10] = dose 300 μg/ml, adding 5% of coffee extract
[11] = dose 1000 μg/ml, adding 5% of coffee extract
[12] = testing drug 100 μg/ml, adding 5% of coffee extract, read-out: inhibiting rate (%) (adding 5% of coffee extract)
[13] = testing drug 100 μg/ml, non adding coffee extract, read-out: Inhibiting rate (%) (non adding coffee extract)

Compound: O=C([O-])/C=C/C(=O)O.[K+] [potassium hydrogen fumate]
- inhibiting rate (%) (adding 5% of coffee extract) [1, 2]: 100%
- Inhibiting rate (%) (non adding coffee extract) [1, 3]: 100%

Compound: O=C([O-])CCC(=O)O.[K+] [potassium hydrogen succinate]
- inhibiting rate (%) (adding 5% of coffee extract) [1, 2]: 100%
- Inhibiting rate (%) (non adding coffee extract) [1, 3]: 100%

Compound: CC1(C)[C@@H](O[C@H]2O[C@H](C(=O)[O-])[C@@H](O)[C@H](O)[C@H]2O[C@@H]2O[C@H](C(=O)[O-])[C@@H](O)[C@H](O)[C@H]2O)CC[C@]2(C)[C@H]3C(=O)C=C4[C@@H]5C[C@@](C)(C(=O)[O-])CC[C@]5(C)CC[C@@]4(C)[C@]3(C)CC[C@@H]12.[Na+].[Na+].[Na+] [Trisodium glycyrrhizinate, reference compound]
- IC50 value (concentration for inhibiting rate of 50%) [1, 4]: 200 µg/mL
- Histamine releasing rate (%) [1, 5]: 90.1%
- Inhibiting rate (%) [1, 5]: 0.8%
- Histamine releasing rate (%) [1, 6]: 89.5%
- Inhibiting rate (%) [1, 6]: 1.6%
- Histamine releasing rate (%) [1, 7]: 88.1%
- Inhibiting rate (%) [1, 7]: 3.3%
- Inhibiting rate (%) [1, 8]: 17.8%
- Histamine releasing rate (%) [1, 9]: 65.5%
- Inhibiting rate (%) [1, 9]: 31.1%
- Histamine releasing rate (%) [1, 10]: 32.7%
- Inhibiting rate (%) [1, 10]: 70.5%
- Histamine releasing rate (%) [1, 11]: 9.2%
- Inhibiting rate (%) [1, 11]: 100%
- inhibiting rate (%) (adding 5% of coffee extract) [1, 2]: 48.3%
- Inhibiting rate (%) (non adding coffee extract) [1, 3]: 30.9%

Compound: O=C(O)CO [α-hydroxy ethanoic acid]
- inhibiting rate (%) (adding 5% of coffee extract) [1, 2]: 100%
- Inhibiting rate (%) (non adding coffee extract) [1, 3]: 100%
- Increase rate (%) of memory ability (person): 300%

Compound: O=C([O-])/C=C\C(=O)O.[Na+] [sodium hydrogen maleate]
- inhibiting rate (%) (adding 5% of coffee extract) [1, 2]: 100%
- Inhibiting rate (%) (non adding coffee extract) [1, 3]: 100%

Compound: O=C([O-])CC(O)(CC(=O)O)C(=O)[O-].[K+].[K+] [dipotassium hydrogen citrate]
- inhibiting rate (%) (adding 5% of coffee extract) [1, 2]: 48.7%
- Inhibiting rate (%) (non adding coffee extract) [1, 3]: 40.0%

Compound: O=C(O)CCC(=O)C(=O)O [keto-glutaric acid]
- inhibiting rate (%) (adding 5% of coffee extract) [1, 2]: 100%
- Inhibiting rate (%) (non adding coffee extract) [1, 3]: 100%
- Increase rate (%) of memory ability (person): 321%

Compound: O=C([O-])CC(O)(CC(=O)[O-])C(=O)O.[Na+].[Na+] [disodium hydrogen citrate]
- inhibiting rate (%) (adding 5% of coffee extract) [1, 2]: 49.4%
- Inhibiting rate (%) (non adding coffee extract) [1, 3]: 39.1%

Compound: CC(=O)O [acetic acid]
- inhibition at 100 µg/mL [1, 12]: 100%
- inhibition at 100 µg/mL [1, 13]: 100%
- change in vivo at 1800 mg (person): 307%

Compound: O=C(O)CC(O)C(=O)O.[K] (centres unmarked) [potassium hydrogen malate]
- inhibiting rate (%) (adding 5% of coffee extract) [1, 2]: 100%
- Inhibiting rate (%) (non adding coffee extract) [1, 3]: 100%

Compound: O=C(O)/C=C\C(=O)O [Maleic acid]
- change in vivo at 1800 mg (person): 370%

Compound: O=C([O-])C(O)C(O)C(=O)O.[Na+] (centres unmarked) [sodium hydrogen tartrate]
- inhibiting rate (%) (adding 5% of coffee extract) [1, 2]: 100%
- Inhibiting rate (%) (non adding coffee extract) [1, 3]: 100%

Compound: O=C(O)CC(O)(CC(=O)O)C(=O)[O-].[Na+] [sodium dihydrogen citrate]
- inhibiting rate (%) (adding 5% of coffee extract) [1, 2]: 100%
- Inhibiting rate (%) (non adding coffee extract) [1, 3]: 100%

Compound: O=C([O-])/C=C/C(=O)O.[Na+] [sodium hydrogen fumate]
- inhibiting rate (%) (adding 5% of coffee extract) [1, 2]: 100%
- Inhibiting rate (%) (non adding coffee extract) [1, 3]: 100%

Compound: Diphenhydramine citrate [reference compound]
- inhibiting rate (%) (adding 5% of coffee extract) [1, 2]: 55.5%
- Inhibiting rate (%) (non adding coffee extract) [1, 3]: 37.5%

Compound: O=C(O)CCC(=O)O [Succinic acid]
- IC50 [1, 4]: 5.8 µg/mL (≈ 49.1 µM)
- inhibition at 2 µg/mL ([1]; dose 2 μg/ml, adding 5% of coffee extract, read-out: Inhibiting rate (%)): 24.9%
- inhibition at 2 µg/mL ([1]; dose 2 μg/ml, non-adding coffee extract, read-out: Inhibiting rate (%)): 17.9%
- inhibition at 5 µg/mL ([1]; dose 5 μg/ml, adding 5% of coffee extract, read-out: Inhibiting rate (%)): 43.6%
- inhibition at 5 µg/mL ([1]; dose 5 μg/ml, non-adding coffee extract, read-out: Inhibiting rate (%)): 37.7%
- inhibition at 10 µg/mL ([1]; dose 10 μg/ml, adding 5% of coffee extract, read-out: Inhibiting rate (%)): 87.9%
- inhibition at 10 µg/mL ([1]; dose 10 μg/ml, non-adding coffee extract, read-out: Inhibiting rate (%)): 84%
- inhibition at 50 µg/mL ([1]; dose 50 μg/ml, adding 5% of coffee extract, read-out: Inhibiting rate (%)): 100%
- inhibition at 50 µg/mL ([1]; dose 50 μg/ml, non-adding coffee extract, read-out: Inhibiting rate (%)): 100%
- inhibition at 100 µg/mL ([1]; dose 100 μg/ml, adding 5% of coffee extract, read-out: Inhibiting rate (%)): 100%
- inhibition at 100 µg/mL ([1]; dose 100 μg/ml, non-adding coffee extract, read-out: Inhibiting rate (%)): 100%
- inhibition at 300 µg/mL ([1]; dose 300 μg/ml, adding 5% of coffee extract, read-out: Inhibiting rate (%)): 100%
- inhibition at 300 µg/mL ([1]; dose 300 μg/ml, non-adding coffee extract, read-out: Inhibiting rate (%)): 100%
- inhibition at 1000 µg/mL ([1]; dose 1000 μg/ml, adding 5% of coffee extract, read-out: Inhibiting rate (%)): 100%
- inhibition at 1000 µg/mL ([1]; dose 1000 μg/ml, non-adding coffee extract, read-out: Inhibiting rate (%)): 100%
- IC50 ([1]; non-adding coffee extract, calculated by figure): 7 µg/mL (≈ 59.3 µM)
- inhibition at 100 µg/mL [1, 12]: 100%
- inhibition at 100 µg/mL [1, 13]: 100%
- Histamine releasing rate (%) [1, 5]: 70.5%
- Histamine releasing rate (%) ([1]; dose 2 μg/ml, non-adding coffee extract): 76.2%
- Histamine releasing rate (%) [1, 6]: 55.3%
- Histamine releasing rate (%) ([1]; dose 5 μg/ml, non-adding coffee extract): 60.1%
- Histamine releasing rate (%) [1, 7]: 19.3%
- Histamine releasing rate (%) ([1]; dose 10 μg/ml, non-adding coffee extract): 22.5%
- Histamine releasing rate (%) [1, 8]: 9.1%
- Histamine releasing rate (%) ([1]; dose 50 μg/ml, non-adding coffee extract): 9.1%
- Histamine releasing rate (%) [1, 9]: 9.3%
- Histamine releasing rate (%) ([1]; dose 100 μg/ml, non-adding coffee extract): 9.3%
- Histamine releasing rate (%) [1, 10]: 9.4%
- Histamine releasing rate (%) ([1]; dose 300 μg/ml, non-adding coffee extract): 9.4%
- Histamine releasing rate (%) [1, 11]: 9.4%
- Histamine releasing rate (%) ([1]; dose 1000 μg/ml, non-adding coffee extract): 9.4%
- change in vivo at 1800 mg (person): 330%

Compound: CCC(=O)O [propionic acid]
- inhibition at 100 µg/mL [1, 12]: 100%
- inhibition at 100 µg/mL [1, 13]: 100%
- change in vivo at 1800 mg (person): 296%

Compound: O=C1O[C@H](CO)[C@@H](O)[C@H](O)[C@H]1O [gluconolactone]
- inhibition at 100 µg/mL [1, 12]: 100%
- inhibition at 100 µg/mL [1, 13]: 100%
- change in vivo at 1800 mg (person): 290%

Compound: O=C([O-])CC(O)(CC(=O)O)C(=O)O.[K+] [potassium dihydrogen citrate]
- inhibiting rate (%) (adding 5% of coffee extract) [1, 2]: 100%
- Inhibiting rate (%) (non adding coffee extract) [1, 3]: 100%

Compound: O=C([O-])CC(O)C(=O)O.[Na+] (centres unmarked) [sodium hydrogen malate]
- inhibiting rate (%) (adding 5% of coffee extract) [1, 2]: 100%
- Inhibiting rate (%) (non adding coffee extract) [1, 3]: 100%

Compound: O=C(O)CC(=O)C(=O)O [oxalacetic acid]
- inhibition at 100 µg/mL [1, 12]: 100%
- inhibition at 100 µg/mL [1, 13]: 100%
- change in vivo at 1800 mg (person): 310%

Compound: O=C([O-])CCC(=O)O.[Na+] [sodium hydrogen succinate]
- inhibiting rate (%) (adding 5% of coffee extract) [1, 2]: 100%
- Inhibiting rate (%) (non adding coffee extract) [1, 3]: 100%

Compound: O=C([O-])/C=C\C(=O)O.[K+] [potassium hydrogen maleate]
- inhibiting rate (%) (adding 5% of coffee extract) [1, 2]: 100%
- Inhibiting rate (%) (non adding coffee extract) [1, 3]: 100%

Compound: O=C([O-])C(O)C(O)C(=O)O.[K+] (centres unmarked) [potassium hydrogen tartrate]
- inhibiting rate (%) (adding 5% of coffee extract) [1, 2]: 100%
- Inhibiting rate (%) (non adding coffee extract) [1, 3]: 100%
